# System: Myzus persicae
# Assay: Myzus persicae - spray test
# Type: in vivo
# Conditions: foliar, 144 h, application rate 500 g/ha, after 6 days, Chinese cabbage leaf discs, all stages of green peach aphid, 100% = all aphids killed, read-out: efficacy
# Procedure: To produce further test concentrations, the formulation is diluted with emulsifier-containing water.
row,SMILES,pest or weed control at 500 g/ha [%]
1,CON(C)C(=O)c1cc2cn(-c3cccnc3)nc2cn1 [Compound 11],90
2,CNC(=O)c1cc2cn(-c3cncc(F)c3)nc2cn1 [Compound 19],90
3,CCNC(=O)c1cc2cn(-c3cccnc3)nc2cn1 [Compound 31],90
4,CON(C)C(=O)c1cc2cn(-c3cncc(F)c3)nc2cn1 [Compound 26],90
5,O=C(NC1CC1)c1cc2cn(-c3cccnc3)nc2cn1 [Compound 29],90
6,CN(C)C(=O)c1cc2cn(-c3cncc(F)c3)nc2cn1 [Compound 20],90
7,CNC(=O)c1cc2cn(-c3cnccn3)nc2cn1 [Compound 14],90
8,O=C(NCC(F)F)c1cc2cn(-c3cccnc3)nc2cn1 [Compound 36],90

# System: Musca domestica
# Assay: Musca domestica test
# Type: in vivo
# Conditions: application rate 100 ppm; after 2 days; adult houseflies; 100% = all flies killed
# Procedure: • Solvent: dimethyl sulfoxide
# To produce a suitable preparation of active compound, 10 mg of active compound are mixed with 0.5 ml of dimethyl sulfoxide, and the concentrate is diluted with water to the desired concentration.
# Vessels containing a sponge treated with sugar solution and the active compound formulation of the desired concentration are populated with 10 adult houseflies (Musca domestica).
# After 2 days, the kill in % is determined. 100% means that all of the flies have been killed; 0% means that none of the flies have been killed.
row,SMILES,efficacy (kill) [%]
1,CNC(=O)c1cc2cn(-c3cnccn3)nc2cn1 [Compound 14],80

# — patent US9832999B1, “Bicyclic compounds as pest control agents” (BAYER CROPSCIENCE AKTIENGESELLSCHAFT, priority 2014, dated 2017)
